Data from US12668845B2, “Methods for predicting drug responsiveness in cancer patients” (Allarity Therapeutics Europe ApS, priority 2018, dated 2026).

How the values were obtained:
HEC-108 = assay: Growth inhibition of cell lines treated with 2X-121; assay type: cell-based; conditions: cell line HEC-108, origin Endometrial; read-out: Measured growth inhibition IC50
P-glycoprotein = P-glycoprotein (Homo sapiens, UniProt P08183); conditions: cited from earlier work
SNU-182 = assay: Growth inhibition of cell lines treated with 2X-121; assay type: cell-based; conditions: Homo sapiens; cell line SNU-182, origin HCC; read-out: Measured growth inhibition IC50
NCI-H1694 = assay: as above; assay type: cell-based; conditions: Homo sapiens; cell line NCI-H1694, origin SCLC; read-out: Measured growth inhibition IC50
K562 = assay: as above; assay type: cell-based; conditions: Homo sapiens; cell line K562, origin Erythroleukemia from CML Pt; read-out: Measured growth inhibition IC50
MFE-280 = assay: as above; assay type: cell-based; conditions: Homo sapiens; cell line MFE-280, origin Endometrial; read-out: Measured growth inhibition IC50
HEC-1A = assay: as above; assay type: cell-based; conditions: Homo sapiens; cell line HEC-1A, origin Endometrial; read-out: Measured growth inhibition IC50
RL95-2 = assay: as above; assay type: cell-based; conditions: Homo sapiens; cell line RL95-2, origin Endometrial; read-out: Measured growth inhibition IC50
SF-295 = assay: as above; assay type: cell-based; conditions: Homo sapiens; cell line SF-295, origin GBM; read-out: Measured growth inhibition IC50
HEC-59 = assay: as above; assay type: cell-based; conditions: cell line HEC-59, origin Endometrial; read-out: Measured growth inhibition IC50
ARH-77 = assay: as above; assay type: cell-based; conditions: Homo sapiens; cell line ARH-77, origin Myeloma; read-out: Measured growth inhibition IC50
DB = assay: as above; assay type: cell-based; conditions: Homo sapiens; cell line DB, origin DLBCL (GC); read-out: Measured growth inhibition IC50
Mino = assay: as above; assay type: cell-based; conditions: Homo sapiens; cell line Mino, origin MCL; read-out: Measured growth inhibition IC50
HCC70 = assay: as above; assay type: cell-based; conditions: Homo sapiens; cell line HCC70, origin Breast; read-out: Measured growth inhibition IC50
A549 = assay: as above; assay type: cell-based; conditions: Homo sapiens; cell line A549, origin NSCLC; read-out: Measured growth inhibition IC50
HCT-15 = assay: as above; assay type: cell-based; conditions: Homo sapiens; cell line HCT-15, origin Colon; read-out: Measured growth inhibition IC50
MFE-296 = assay: as above; assay type: cell-based; conditions: Homo sapiens; cell line MFE-296, origin Endometrial; read-out: Measured growth inhibition IC50
HL-60 = assay: as above; assay type: cell-based; conditions: Homo sapiens; cell line HL-60, origin Promyelocytic leukemia; read-out: Measured growth inhibition IC50
MC/CAR = assay: as above; assay type: cell-based; conditions: cell line MC/CAR, origin Myeloma; read-out: Measured growth inhibition IC50
HT-1080 = assay: as above; assay type: cell-based; conditions: Homo sapiens; cell line HT-1080, origin Fibrosarcoma; read-out: Measured growth inhibition IC50
Description: (§1) The NCI60 panel of cell lines can be used to determine sensitivity to 2X-121, but it is also possible to use other cell line panels.
(§2) Baseline DNA chip measurements of 61 of the cancer cell lines in Table 1 (excluding M14 HEC-1 ECC-1 SNG-II HEC-88nu SR IM-9 Namalwa MC/CAR U266 JVM-13 NCEB-1 ARH-77) were performed using Affymetrix HG-U133Plus2 arrays and logit normalized. For each array, the logit transformation was performed followed by a Z-transformation to mean zero and SD 1, and correlated to growth inhibition (−log(GI50)). The expression level of each of the genes of Tables 2 and 3 in each cell line was correlated to the growth of those cell lines (log(GI50)) in the presence of 2X-121. The Pearson correlation coefficient was then determined to identify genes positively and negatively correlated to sensitivity to 2X-121. Tables 2 and 3 show the top positively correlated genes (the biomarkers of sensitivity) and negatively correlated genes (the biomarkers of resistance). In particular, genes with a Pearson correlation greater than 0.25 or below −0.25 can be classified as biomarkers of sensitivity or resistance, respectively.

HT = assay: as above; assay type: cell-based; conditions: Homo sapiens; cell line HT, origin DLBCL (GC); read-out: Measured growth inhibition IC50
Description: as §1, §2

C3A = assay: as above; assay type: cell-based; conditions: Homo sapiens; cell line C3A, origin HCC; read-out: Measured growth inhibition IC50
Description: as §1, §2

JVM-2 = assay: as above; assay type: cell-based; conditions: Homo sapiens; cell line JVM-2, origin MCL; read-out: Measured growth inhibition IC50
Description: as §1, §2

NCI-H446 = assay: as above; assay type: cell-based; conditions: Homo sapiens; cell line NCI-H446, origin SCLC; read-out: Measured growth inhibition IC50
Description: as §1, §2

T47D = assay: as above; assay type: cell-based; conditions: Homo sapiens; cell line T47D, origin Breast; read-out: Measured growth inhibition IC50
THP-1 = assay: as above; assay type: cell-based; conditions: Homo sapiens; cell line THP-1, origin AML; read-out: Measured growth inhibition IC50
DU145 = assay: as above; assay type: cell-based; conditions: Homo sapiens, DU-145; cell line DU145, origin Prostate; read-out: Measured growth inhibition IC50
HEC-251 = assay: as above; assay type: cell-based; conditions: cell line HEC-251, origin Endometrial; read-out: Measured growth inhibition IC50
NCI-H524 = assay: as above; assay type: cell-based; conditions: Homo sapiens; cell line NCI-H524, origin SCLC; read-out: Measured growth inhibition IC50

P-glycoprotein, sequence (P08183 whole entry): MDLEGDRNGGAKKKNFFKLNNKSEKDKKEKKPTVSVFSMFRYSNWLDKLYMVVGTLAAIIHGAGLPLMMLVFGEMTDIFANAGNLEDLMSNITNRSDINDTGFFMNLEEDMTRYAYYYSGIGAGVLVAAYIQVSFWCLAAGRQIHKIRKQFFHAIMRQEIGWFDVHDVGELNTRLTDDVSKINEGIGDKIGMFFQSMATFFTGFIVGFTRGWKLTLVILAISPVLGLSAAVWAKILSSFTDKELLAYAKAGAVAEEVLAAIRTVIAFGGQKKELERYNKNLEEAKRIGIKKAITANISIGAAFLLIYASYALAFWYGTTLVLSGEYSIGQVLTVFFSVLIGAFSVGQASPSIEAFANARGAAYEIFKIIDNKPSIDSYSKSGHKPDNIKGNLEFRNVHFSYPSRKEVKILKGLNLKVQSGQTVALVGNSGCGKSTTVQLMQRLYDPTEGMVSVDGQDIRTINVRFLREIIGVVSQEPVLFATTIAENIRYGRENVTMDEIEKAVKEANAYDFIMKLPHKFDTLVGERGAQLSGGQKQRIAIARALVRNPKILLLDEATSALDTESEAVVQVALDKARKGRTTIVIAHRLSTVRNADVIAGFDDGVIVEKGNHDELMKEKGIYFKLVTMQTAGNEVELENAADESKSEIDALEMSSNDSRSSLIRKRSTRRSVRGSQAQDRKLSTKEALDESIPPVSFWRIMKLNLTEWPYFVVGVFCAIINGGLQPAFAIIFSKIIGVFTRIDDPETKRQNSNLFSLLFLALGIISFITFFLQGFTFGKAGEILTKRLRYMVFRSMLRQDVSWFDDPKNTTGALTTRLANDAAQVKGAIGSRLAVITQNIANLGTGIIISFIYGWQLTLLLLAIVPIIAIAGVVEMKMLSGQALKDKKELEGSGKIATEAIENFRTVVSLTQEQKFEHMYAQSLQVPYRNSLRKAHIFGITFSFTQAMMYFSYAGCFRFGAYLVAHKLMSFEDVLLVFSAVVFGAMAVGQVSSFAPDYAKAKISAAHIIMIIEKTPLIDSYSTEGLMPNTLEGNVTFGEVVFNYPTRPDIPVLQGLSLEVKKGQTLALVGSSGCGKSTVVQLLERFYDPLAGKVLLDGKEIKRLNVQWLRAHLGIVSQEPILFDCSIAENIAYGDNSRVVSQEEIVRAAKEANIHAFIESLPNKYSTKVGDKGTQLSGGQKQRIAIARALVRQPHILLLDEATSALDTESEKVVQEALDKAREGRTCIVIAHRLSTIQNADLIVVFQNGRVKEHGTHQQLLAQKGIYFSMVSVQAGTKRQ

Question: Which IC50 (HEC-108) does the source give for `O=c1[nH]nc2c3c(cccc13)N=C(CN1Cc3ccccc3C1)N2` [2X-121, 8-(isoindolin-2-ylmethyl)-2,9-dihydro-3H-pyridazino[3,4,5-de]quinazolin-3-one] here?
Answer: 5970 nM

Question: What about the “substrate for P-glycoprotein” value (P-glycoprotein) of the same compound?
Answer: not a substrate for P-glycoprotein

Question: And the IC50 (SNU-182)?
Answer: 5400 nM

Question: What about the IC50 (NCI-H1694) of the same compound?
Answer: 2470 nM

Question: What about the IC50 (K562) of the same compound?
Answer: 4300 nM

Question: And the IC50 (MFE-280)?
Answer: 770 nM

Question: And the IC50 (HEC-1A)?
Answer: 2960 nM

Question: And the IC50 (RL95-2)?
Answer: 2130 nM

Question: And the IC50 (SF-295)?
Answer: 2600 nM

Question: And the IC50 (HEC-59)?
Answer: 2440 nM

Question: And the IC50 (ARH-77)?
Answer: 3200 nM

Question: What about the IC50 (DB) of the same compound?
Answer: 1600 nM

Question: What about the IC50 (Mino) of the same compound?
Answer: 3400 nM

Question: And the IC50 (HCC70)?
Answer: 9300 nM

Question: What about the IC50 (A549) of the same compound?
Answer: 2200 nM

Question: What about the IC50 (HCT-15) of the same compound?
Answer: 2200 nM

Question: What about the IC50 (MFE-296) of the same compound?
Answer: 670 nM

Question: What about the IC50 (HL-60) of the same compound?
Answer: 10300 nM

Question: What about the IC50 (MC/CAR) of the same compound?
Answer: 2300 nM

Question: And the IC50 (HT-1080)?
Answer: 830 nM

Question: And the IC50 (HT)?
Answer: 660 nM

Question: And the IC50 (C3A)?
Answer: 2540 nM

Question: What about the IC50 (JVM-2) of the same compound?
Answer: 14000 nM

Question: And the IC50 (NCI-H446)?
Answer: 610 nM

Question: What about the IC50 (T47D) of the same compound?
Answer: 7800 nM

Question: And the IC50 (THP-1)?
Answer: 5400 nM

Question: What about the IC50 (DU145) of the same compound?
Answer: 1800 nM

Question: What about the IC50 (HEC-251) of the same compound?
Answer: 1260 nM

Question: And the IC50 (NCI-H524)?
Answer: 690 nM
